According to US20110223132A1, “ISOTHIAZOLOQUINOLONES AND RELATED COMPOUNDS AS ANTI-INFECTIVE AGENTS” (priority 2003, published 2011):
Values after ≈ are worked out from the molar mass of the structure shown.

What was measured:
E. coli ATCC 25922 = experiment: Minimum inhibitory concentration (MIC) assay, broth microdilution; assay type: cell-based; conditions: Escherichia coli, ATCC25922; E. coli ATCC 25922, Mueller-Hinton II broth, 37° C., 18 to 24 hours
Experimental: (§1) The antimicrobial activity of the compounds of the invention may be evaluated by a number of methods, including the following visual minimum inhibitory concentration (MIC) assay. This assay determines the minimum concentration of compound required to inhibit growth of a bacterial strain. Whole-cell antibacterial activity is determined by broth microdilution using conditions recommended by the NCCLS (see National Committee for Clinical Laboratory Standards. 2001. Performance standards for antimicrobial susceptibility testing: 11th informational supplement. Vol. 21, no. 1, M100-S11. National Committee for Clinical Laboratory Standards, Wayne, Pa.). Test compounds are dissolved in DMSO and diluted 1:50 in Mueller-Hinton II broth (Becton-Dickinson) to produce a 256 μg/ml stock solution. In a 96-well microtiter plate, the compound solution is serially two-fold diluted in Mueller-Hinton II broth. After the compounds are diluted, a […] aliquot of the test organism (˜1×10^6 cfu/mL) is added to each well of the microtiter plate. The final test concentrations range from 0.125-128 μg/mL Inoculated plates are incubated in ambient air at 37° C. for 18 to 24 hours. The organisms selected for testing included laboratory strains S. aureus ATCC 29213 and E. coli ATCC 25922 (strains purchased from American Type Culture Collection, Manassas, Va.). The minimum inhibitory concentration (MIC) was determined as the lowest concentration of compound that inhibited visible growth of the test organism.

S. aureus ATCC 29213 = experiment: as above; assay type: cell-based; conditions: Staphylococcus aureus, ATCC29213; S. aureus ATCC 29213, Mueller-Hinton II broth, 37° C., 18 to 24 hours
Experimental: as §1

[1] = Compound cytotoxicity, cell viability staining with Alamar Blue; assay type: cell-based; conditions: Chinese hamster, CHO cells (Chinese hamster ovary), positive control
Experimental: (§2) Optimal cell density is first determined by plating cells in a 96-well plate standard sterile tissue culture plates in 100 μl media, 10% FBS at six cell densities from 500 cells/well to 15,000 cells/well. A cell free well containing only media is used as a control. Cells are incubated at 37° C. in a 5% CO2 incubator for 24 hours. 10% culture volume (10 ul) of Alamar Blue (Biosource, DAL1100, 100 mL) is then added. Cells are incubated at 37° C. in a 5% CO2 incubator and read in a Victor V plate reader, 544 nm excitation, 590 nm emission, at 3, 4, and 24 hours after the addition of Alamar Blue. The cell number vs. change in fluorescence is plotted to determine linearity of signal vs. cell number. The optimal density varies between 500-15,000 cells/well depending on the specific cell type. The optimal density is selected based on the highest number of cells that is still in the linear response range. Cells are plated at optimal cell density in a standard sterile tissue culture 96 well plate, and incubated at 37° C., O/N in a 5% CO2 incubator. 12 to 48 hours post-plating media is removed. […] Plates are incubated 4 hours at 37° C. in a 5% CO2 incubator and read in a Victor V plate reader, 544 nm excitation, 590 nm emission. […] The change in fluorescence vs. concentration of test compound is plotted to determine the cytotoxicity of the compound.

[2] = as above; assay type: cell-based; conditions: human, Hep 2 cells (laryngeal carcinoma), positive control
Experimental: as §2

Row | SMILES | MIC (E. coli ATCC 25922) | MIC (S. aureus ATCC 29213) | also measured
1 | O=c1[nH]sc2c1c(=O)c1cc(F)c(C3=CCNCC3)cc1n2C1CC1 |  |  | melting point: > 241 °C (dec.)
2 | NC1CCc2cc(-c3cc4c(cc3F)c(=O)c3c(=O)[nH]sc3n4C3CC3)ccc2C1 (racemic) [Compound 31, (Rac)-7-(6-Amino-5,6,7,8-Tetrahydronaphthalen-2-Yl)-9-Cyclopropyl-6-Fluoro-9H-Isothiazolo[5,4-B]Quinoline-3,4-Dione] |  |  | melting point: > 257 °C (dec.)
3 | O=c1[nH]sc2c1c(=O)c1cc(F)c(-c3cccnc3)cc1n2C1CC1 [Compound 33, 9-Cyclopropyl-6-fluoro-7-pyridin-3-yl-9H-isothiazolo [5,4-b]quinoline-3,4-dione] | 0.003 µg/mL (≈ 0.00849 µM) | 0.007 µg/mL (≈ 0.0198 µM) | 
4 | CC(C)(C)c1ccc(C(O)CCCN2CCC(C(O)(c3ccccc3)c3ccccc3)CC2)cc1 (stereo not drawn) [Terfenadine] |  |  | CC50 [1]: 4.3 to 6.5 µM; CC50 [2]: 3 to 5 µM

Now from value to compound, other results behind:

Row | MIC (E. coli ATCC 25922) | MIC (S. aureus ATCC 29213) | SMILES | also measured
5 | 0.06 µg/mL (≈ 0.17 µM) | 0.007 µg/mL (≈ 0.0199 µM) | O=c1[nH]sc2c1c(=O)c1cc(F)c(-c3ccccc3)cc1n2C1CC1 [Compound 32, 9-Cyclopropyl-6-fluoro-7-phenyl-9H-isothiazolo[5,4-b]quinoline-3,4-dione] | 
6 | 1 µg/mL (≈ 2.52 µM) | 0.125 µg/mL (≈ 0.315 µM) | O=C(O)c1cccc(-c2cc3c(cc2F)c(=O)c2c(=O)[nH]sc2n3C2CC2)c1 [Compound 34, 3-(9-Cyclopropyl-6-fluoro-3,4-dioxo-2,3,4,9-tetrahydro-isothiazolo[5,4-b]quinolin-7-yl)-benzoic acid] | 
7 | 1 µg/mL (≈ 2.52 µM) | 0.03 µg/mL (≈ 0.0757 µM) | CCOc1cccc(-c2cc3c(cc2F)c(=O)c2c(=O)[nH]sc2n3C2CC2)c1 [Compound 35, 9-Cyclopropyl-7-(3-ethoxy-phenyl)-6-fluoro-9H-isothiazolo[5,4-b]quinoline-3,4-dione] | 
